The source of these data is US20150307549A1, “AGENT FOR PREVENTING ARTERIOSCLEROSIS, AGENT FOR SUPPRESSING VASCULAR INTIMAL THICKENING AND AGENT FOR IMPROVING VASCULAR ENDOTHELIAL FUNCTION” (CALPIS Co., LTD, priority 2006, published 2015).

Assay [1] relates to thoracic aorta ring of Wistar rats. Briefly: Endothelium-dependent vasodilator response of thoracic aorta ring of L-NAME-treated rats (Magnus apparatus). The conditions noted are these: for Degree of vasodilation compared to the group given only L-NAME (in words): given together with L-NAME in drinking water for one week. Format: in vivo, rat. Here is the method:
Wistar rats (7 weeks of age, male) as the test animals were acclimatized for one week. A nitric oxide synthesis inhibitor, NG-nitro-L-arginine methyl ester hydrochloride (L-NAME, manufactured by SIGMA-ALDRICH CORP.) was dissolved in drinking water at the concentration of 1 g/L, and similarly, L-NAME and Val-Pro-Pro synthesized above at 1 g/L and 0.3 g/L, respectively, and L-NAME and Ile-Pro-Pro synthesized above at 1 g/L and 0.3 g/L, respectively. The rats were allowed free access to the prepared drinking water for one week. As a control, only the drinking water without L-NAME dissolved therein was given to a non-treatment group.
Then, the rats were subjected to fatal exsanguination under diethyl ether anesthesia. The thoracic aorta was taken out, cut into 2 mm long, and made into an aorta ring. The ring was set in a Magnus apparatus (product name “micro tissue organ bath MTOB-1Z”, manufactured by LABO SUPPORT CO., LTD.) filled with 5 ml of Tyrode's solution (composition: 158.3 mM of NaCl, 4.0 mM of KCl, 2.0 mM of CaCl2, 1.05 mM of MaCl2, 0.42 mM of NaH2PO4, 10.0 mM of NaHCO3, and 5.6 mM of glucose; pH 7.4, 37±0.5° C.), and allowed to equilibrate with the resting tension of 2.0 g. The aorta ring was then allowed to constrict with 1 μM of phenylephrine
The degree of vasodilation by the response was determined as a ratio to the constriction with 1 μM of phenylephrine. In the Table, each value is an average of each group of 8 animals.
In the Table, each value is an average of each group of 9 animals.

For the next assay, the system named is ApoE knockout mice. Briefly: Confirmatory test for effect of inhibiting vascular intimal thickening (Elastica-van Gieson stain, intima/media area ratio). Format: in vivo, mouse. The conditions noted are these: 31 weeks; for Inhibition of vascular intimal thickening (in words): Example 2-2, Feeds 1 to 6 versus control; for Degree of Intimal Thickening: intima/media area ratio. The procedure:
ApoE knockout mice (6 weeks of age, male, 8 animals for each group) were allowed free access to Feeds 1 to 7 as shown in Table 6 for 31 weeks. Then the thoracic aorta of the mice was taken out, fixed in 10% neutral buffered formalin, and subjected to the Elastica-van Gieson stain. Micrographs of the tissue specimens were scanned into the computer, and the degree of vascular intimal thickening (intima/media area ratio (%)) was calculated using an image processing software (Image J). The values of the degree of thickening shown in the table are the averages of each group.
The confirmatory test for the effect of inhibiting vascular intimal thickening was conducted on each of the solid feeds thus produced in the same way as in Example 2-2, and the degree of intimal thickening (intimal/media area ratio (%)) was calculated. The values of the degree of intimal thickening in the table are the averages of each group.

In the next assay the test system is arteriosclerosis. The conditions noted are these: administration; Non-patent Publication 5; cited from earlier work.

Turning to Val-Pro-Pro, in assay [1], the “Degree of vasodilation compared to the group given only L-NAME (in words)” value is reported as “significantly higher”. In addition, the “Inhibition of vascular intimal thickening (in words)” value in the assay with ApoE knockout mice is on record as “inhibited vascular intimal thickening concentration-dependently”. Further, the “Degree of Intimal Thickening” value in the assay on ApoE knockout mice (Feed 1: 0.0034 wt % in feed (Val-Pro-Pro 34.1 mg/kg feed)) amounted to 21.8%; with ApoE knockout mice (Feed 2: 0.0340 wt % in feed (Val-Pro-Pro 341.0 mg/kg feed)), 18.7%.
Turning to `COC(=O)[C@@H](N)CCCN=C(N)N[N+](=O)[O-].Cl` [L-NAME, NG-nitro-L-arginine methyl ester hydrochloride, reference compound], the Degree of vasodilation in assay [1] (10 μM acetylcholine, ratio to constriction with 1 μM phenylephrine, drinking water one week: L-NAME 1 g/L, peptide 0.3 g/L, enalapril 0.5 mg/L) is given as 26.1%.
Consider `CCOC(=O)[C@H](CCc1ccccc1)N[C@@H](C)C(=O)N1CCC[C@H]1C(=O)O` [enalapril, reference compound], for which the “Degree of vasodilation compared to the group given only L-NAME (in words)” value in assay [1] is “no significant difference”. Further, the Arteriosclerosis inhibitory effect result in the assay on arteriosclerosis is “does not result in an arteriosclerosis inhibitory effect”.
On to Ile-Pro-Pro, for which the “Degree of vasodilation compared to the group given only L-NAME (in words)” value in assay [1] was “significantly higher”. Besides, the “Inhibition of vascular intimal thickening (in words)” value in the assay with ApoE knockout mice is “inhibited vascular intimal thickening concentration-dependently”. Besides, the “Degree of Intimal Thickening” value in the assay with ApoE knockout mice (Feed 3: 0.0017 wt % in feed (Ile-Pro-Pro 17.1 mg/kg feed)) is given as 25.3%; with ApoE knockout mice (Feed 4: 0.0170 wt % in feed (Ile-Pro-Pro 171.0 mg/kg feed)), 20.5%.
